Measured values taken from patent publication US20260294915A1, “COMBINATION THERAPY COMPRISING A MAT2A INHIBITOR AND A TOPOISOMERASE INHIBITOR, A SPLICING INHIBITOR SULFONAMIDE, OR A KIF18 INHIBITOR” (IDEAYA BIOSCIENCES, INC., priority 2023, published 2026).
Marks after values point to notes of the source that are not given here.

Legend:
Assay in all cases: 10-day proliferation (CTG), SPLAM titration + 1000 nM Compound A, Bliss (Example 5; Tables 12-19)
Type in all cases: cell-based
Conditions in all cases: alone or + 1 uM Cmpd A
[1] = system: NCI-H838; parameters: key: GDI scale -100 to 100; 0 = cell number at T0; <0 cytotoxic
Protocol: Synergy was measured across the Indisulam titration with 1000 nM Compound A by Bliss Independence analysis. Bliss scores >10 are indicated by “*” and are considered synergistic. […] Synergy as reported using Bliss may be underrepresented within cytotoxic dose ranges. Growth death index values are shown for the combination titration and each single agent Compound A (Cmpd A) and Indisulam on a scale of −100 to 100 with the midpoint (0) being the number of cells at the beginning of the combination (T0). Scores less than 0 are indicated with “**” and are representative of a cytotoxic response. Bliss and GDI values are shown for five MTAP-deficient cell lines: NCI-1H838 (12A), SW900 (12B), RT112/84 (12C), UMUC5 (121D), and UMUC11 (12E).
(§1) A 10-day proliferation assay was performed in a panel of 5 MTAP-deficient and 2 wild type non-small cell lung and bladder cancer cell lines. Optimal cell seeding for all cell lines was determined by assessing the growth over a range of seeding densities in a 384-well format to identify conditions that permitted proliferation for 10 days. Cells were then plated at the optimal seeding density and treated with 20-point, two-fold dilution series of each of four structurally different SPLAMs in combination with a 1000 nM fixed concentration of Compound A. Single agent titrations for Compound A and each SPLAM were included for comparison. Concentrations tested for each SPLAM alone or in combination ranged from 0.04 nM to 20,000 nM. A plate of cells was harvested at the time of compound addition to quantify the number of cells at the start of the combination (T0). For cell quantification, the harvested cells were lysed with Promega CellTiter-Glo (CTG) reagent according to the manufacturer's protocol and the chemiluminescent signal was detected as described in Example 1 above. Cells were incubated with the drug combinations at 37° C. with 5% CO2 for 10 days. Cells were then lysed with CTG and the chemiluminescent signal was measured.
(§2) CTG values obtained after the 10-day treatment were background subtracted and expressed as a percent of the T0 value set at 100%. Data were plotted against compound concentration and fit with a four-parameter equation to generate single agent dose response curves. Percent inhibition was determined for each combination and single agent concentration compared to a DMSO control. In addition, the overall net growth or death of the cells was calculated and reported as a growth death index (GDI) value on a scale of −100 to 100 with the midpoint (0) being the number of cells at the beginning of the combination (T0).
(§3) Predicted inhibition was calculated using (Ea+Eb)−(Ea*Eb) where E equals the effect (inhibition) of each single agent (a and b). A difference between the observed inhibition percentage and the predicted inhibition percentage greater than 10% was considered synergistic. A Bliss score was only reported for combinations eliciting >20% growth inhibition (GDI value <80). Since Bliss is calculated based on growth inhibition, scores within cytotoxic dose ranges may not accurately reflect synergistic cytoxicity.
Synergy was measured across the E7820 titration with 1000 nM Compound A by Bliss Independence analysis. Bliss scores >10 are indicated by “*” and are considered synergistic. […] Synergy as reported using Bliss may be underrepresented within cytotoxic dose ranges. Growth death index values are shown for the combination titration and each single agent Compound A (Cmpd A) and Indisulam on a scale of −100 to 100 with the midpoint (0) being the number of cells at the beginning of the combination (T0). Scores less than 0 are indicated by “**” and are representative of a cytotoxic response. Bliss and GDI values are shown for five MTAP-deficient cell lines: NCI-1H838 (14A), SW900 (14B), RT112/84 (14C), UMUC5 (141)), and UMUC11 (14E).
Synergy was measured across the Chloroquinoxaline Sulfonamide titration with 1000 nM Compound A by Bliss Independence analysis.

[2] = system: NCI-H520; parameters: key: −100 to 100; 0 = cell number at T0, <0 = cytotoxic
Protocol: as §1, §2, §3
(§4) Synergy was measured across the Indisulam titration with 1000 nM Compound A by Bliss Independence analysis. Bliss scores >10 are indicated by “*” and are considered synergistic. […] Synergy as reported using Bliss may be underrepresented within cytotoxic dose ranges. Growth death index values are shown for the combination titration and each single agent Compound A (Cmpd A) and Indisulam on a scale of −100 to 100 with the midpoint (0) being the number of cells at the beginning of the combination (T0). Scores less than 0 are highlighted black and are representative of a cytotoxic response. Bliss and GDI values are shown for five MTAP-deficient cell lines: NCI-H520 (13A), TCCSUP (13B).
(§5) Synergy was measured across the E7820 titration with 1000 nM Compound A by Bliss Independence analysis. Bliss scores >10 are indicated by “*” and are considered synergistic. […] Synergy as reported using Bliss may be underrepresented within cytotoxic dose ranges. Growth death index values are shown for the combination titration and each single agent Compound A (Cmpd A) and Indisulam on a scale of −100 to 100 with the midpoint (0) being the number of cells at the beginning of the combination (T0). Scores less than 0 are indicated by “**” and are representative of a cytotoxic response. Bliss and GDI values are shown for five MTAP-deficient cell lines: NCI-H520 (15A), TCCSUP (15B).
(§6) Synergy was measured across the Chloroquinoxaline Sulfonamide titration with 1000 nM Compound A by Bliss Independence analysis. Bliss scores >10 are indicated by and are considered synergistic.

[3] = system: TCCSUP; parameters: key: −100 to 100; 0 = cell number at T0, <0 = cytotoxic
Protocol: as §1, §2, §3, §4, §5, §6

What does the source list for Cc1ccc(NS(=O)(=O)c2cccc(C#N)c2)c2[nH]cc(C#N)c12 [Compound E7820, 3-cyano-N-(3-cyano-4-methyl-1H-indol-7-yl)benzenesulfonamide]?
GDI ([1]; SPLAM 0.04 nM): 100; GDI ([1]; SPLAM 0.1 nM): 100; GDI ([1]; SPLAM 0.2 nM): 100; GDI ([1]; SPLAM 0.3 nM): 100; GDI ([1]; SPLAM 0.6 nM): 100; GDI ([1]; SPLAM 1.2 nM): 100; GDI ([1]; SPLAM 2.4 nM): 100; GDI ([1]; SPLAM 4.9 nM): 100; GDI ([1]; SPLAM 9.8 nM): 100; GDI ([1]; SPLAM 19.5 nM): 100; GDI ([1]; SPLAM 39.1 nM): 100; GDI ([1]; SPLAM 78.1 nM): 100; GDI ([1]; SPLAM 156.3 nM): 100; GDI ([1]; SPLAM 312.5 nM): 76; GDI ([1]; SPLAM 625 nM): 13; GDI ([1]; SPLAM 1250 nM): 4; GDI ([1]; SPLAM 2500 nM): 1; GDI ([1]; SPLAM 5000 nM): −13**; GDI ([1]; SPLAM 10000 nM): −64**; GDI ([1]; SPLAM 20000 nM): −46**; GDI ([2]; SPLAM 0.04 nM): 100; GDI ([2]; SPLAM 0.1 nM): 100; GDI ([2]; SPLAM 0.2 nM): 100; GDI ([2]; SPLAM 0.3 nM): 100; GDI ([2]; SPLAM 0.6 nM): 100; GDI ([2]; SPLAM 1.2 nM): 100; GDI ([2]; SPLAM 2.4 nM): 100; GDI ([2]; SPLAM 4.9 nM): 100; GDI ([2]; SPLAM 9.8 nM): 100; GDI ([2]; SPLAM 19.5 nM): 100; GDI ([2]; SPLAM 39.1 nM): 100; GDI ([2]; SPLAM 78.1 nM): 100; GDI ([2]; SPLAM 156.3 nM): 100; GDI ([2]; SPLAM 312.5 nM): 82; GDI ([2]; SPLAM 625 nM): 54; GDI ([2]; SPLAM 1250 nM): 32; GDI ([2]; SPLAM 2500 nM): 21; GDI ([2]; SPLAM 5000 nM): 11; GDI ([2]; SPLAM 10000 nM): 8; GDI ([2]; SPLAM 20000 nM): 5; GDI ([3]; SPLAM 0.04 nM): 100; GDI ([3]; SPLAM 0.1 nM): 100; GDI ([3]; SPLAM 0.2 nM): 100; GDI ([3]; SPLAM 0.3 nM): 100; GDI ([3]; SPLAM 0.6 nM): 100; GDI ([3]; SPLAM 1.2 nM): 100; GDI ([3]; SPLAM 2.4 nM): 100; GDI ([3]; SPLAM 4.9 nM): 100; GDI ([3]; SPLAM 9.8 nM): 100; GDI ([3]; SPLAM 19.5 nM): 100; GDI ([3]; SPLAM 39.1 nM): 100; GDI ([3]; SPLAM 78.1 nM): 100; GDI ([3]; SPLAM 156.3 nM): 100; GDI ([3]; SPLAM 312.5 nM): 100; GDI ([3]; SPLAM 625 nM): 100; GDI ([3]; SPLAM 1250 nM): 100; GDI ([3]; SPLAM 2500 nM): 100; GDI ([3]; SPLAM 5000 nM): 92; GDI ([3]; SPLAM 10000 nM): 91; GDI ([3]; SPLAM 20000 nM): 78
